# From patent publication US20250144077A1, “DOSAGE REGIMEN FOR THROMBOPOIETIN RECEPTOR AGONIST” (JIANGSU HENGRUI PHARMACEUTICALS CO., LTD., priority 2022, published 2025)
# Read-outs that look alike come from different tables or passages of the source.
# Key:
# [1] = Single-dose, open-label pharmacokinetics of herombopag in subjects with normal liver function, mild and moderate hepatic impairments; type: in vivo, human; conditions: for AUC0-t GLSM Ratio / AUC0-∞ GLSM Ratio / Cmax GLSM Ratio: ANOVA
# Experimental: Example 1: Study of Pharmacokinetics and Safety of Trial Drug in Subjects with Mild Hepatic Impairments (Child-Pugh: Grade A), Moderate Hepatic Impairments (Child-Pugh: Grade B), and Normal Liver Function
# Trial drug: tablets of herombopag diethanolamine salt, produced and provided by Jiangsu Hengrui, strengths: 2.5 mg/tablet and 5 mg/tablet.
# This study is a single-dose, open-label trial designed to evaluate the pharmacokinetics of herombopag in subjects with normal liver function, mild hepatic impairments, and moderate hepatic impairments.
# The severity of the hepatic functional impairments in the subjects was assessed using the Child-Pugh score (mild: grade A, a score of 5 or 6; moderate: grade B, a score of 7-9).
# (§1) All the subjects in each group underwent PK, PD, and safety index collection following the administration of the study drug on D1 according to the trial process chart, and comparative analysis was then performed between groups.
# PK blood sampling time points: Venous blood samples of about 4 mL were collected from each subject within the 1 h prior to administration and at 0.5, 1, 2, 4, 6, 7, 8, 10, 12, 24, 48, 72, 96, and 120 h after administration. Blood sampling time windows: within the 60 min prior to administration; ±2 min for the 0.5 h-2 h after administration; ±5 min for the 4 h-12 h; ±15 min for the 24 h-120 h after administration.
# (§2) Prior to the day-1 administration (D-1), the subjects were required to fast for 10 h or more, though water intake was not prohibited. The following morning (D1), the subjects orally took, on an empty stomach, a 7.5 mg dose of herombopag diethanolamine tablets (comprised of one 2.5 mg tablet and one 5 mg tablet) with about 240 mL of warm water. Water intake was prohibited 1 h before and after the administration. The subjects had lunch about 4 h after the administration and had dinner about 10 h after the administration. The subjects were advised to remain seated within the 2 h after the administration and to avoid strenuous exercise and prolonged bed rest.
# Pharmacokinetic parameters of herombopag, including Tmax, Cmax, AUC0-t, AUC0-∞, t1/2, V/F, and CL/F, were calculated according to the actual sampling time points using a non-compartmental model (NCA) on Phoenix WinNonlin 8.1.
# plasma protein = test: Plasma protein binding rate of herombopag in subjects with hepatic impairments; type: in vitro ADME, human
# platelet counts = test: PD: platelet counts after administration compared to baseline; type: in vivo, human; conditions: all the groups; single 7.5 mg oral dose
# Experimental: as §1
# [2] = Safety and adverse events after single 7.5 mg oral dose (CTCAE5.0 grading); type: in vivo, human
# Experimental: as §1, §2
# In this study, a total of 24 subjects were included, and all of them were included in a safety analysis set.
# In this study, all drug-related AEs were graded according to CTCAE5.0. […] The adverse reactions mainly occurred in the hepatic impairment groups, and the incidence of adverse reactions in the moderate hepatic impairment group was relatively high, which may be attributed to the fact that these subjects had pre-existing liver diseases of varying degrees of severity and most of them already had abnormal baseline laboratory test results. These subjects recovered from all the adverse events without intervention.
# [3] = Moderate vs. Normal (moderate/normal)
# [4] = mild hepatic impairments compared with normal liver function
# [5] = moderate hepatic impairments compared with normal liver function
# [6] = single 7.5 mg oral dose, fasted, mild hepatic impairment (n = 8), GeoMean (% CVb)
# [7] = single 7.5 mg oral dose, fasted, moderate hepatic impairment (n = 8), GeoMean (% CVb)
# [8] = single 7.5 mg oral dose, fasted, normal liver function group (n = 8), GeoMean (% CVb)
# [9] = moderate hepatic impairment group, 5 subjects
compound,measurement,setting,value
"CC1=NN(c2ccc3c(c2)CCCC3)C(=O)/C1=N\Nc1cccc(-c2ccc(C(=O)O)o2)c1O [herombopag, (Z)-5-(2-hydroxy-3-(2-(3-methyl-5-oxo-1-(5,6,7,8-tetrahydronaphthalen-2-yl)-1H-pyrazol-4(5H)-ylidene)hydrazino)phenyl)furan-2-carboxylic acid]",AUC0-t GLSM Ratio,[1]; Mild vs. Normal (mild/normal),121.73%
same,AUC0-∞ GLSM Ratio,[1]; Mild vs. Normal (mild/normal),120.16%
same,Cmax GLSM Ratio,[1]; Mild vs. Normal (mild/normal),170.39%
same,AUC0-t GLSM Ratio,[1]; [3],171.21%
same,AUC0-∞ GLSM Ratio,[1]; [3],173.06%
same,Cmax GLSM Ratio,[1]; [3],204.72%
same,"median time to peak, hepatic impairment groups versus normal liver function group","[1]; human, in vivo",smaller median time to peak
same,AUC(0-t),"[1]; human, plasma, oral, 7.5 mg, geometric least squares mean, mild hepatic impairment group, n 8, read-out: AUC0-t GLSM",1060 ng·h/mL
same,AUC(0-inf),"[1]; human, plasma, oral, 7.5 mg, geometric least squares mean, mild hepatic impairment group, n 8, read-out: AUC0-∞ GLSM",1120 ng·h/mL
same,Cmax,"[1]; human, plasma, oral, 7.5 mg, geometric least squares mean, mild hepatic impairment group, n 8, read-out: Cmax GLSM",62.6 ng/mL
same,AUC(0-t),"[1]; human, plasma, oral, 7.5 mg, geometric least squares mean, moderate hepatic impairment group, n 8, read-out: AUC0-t GLSM",1500 ng·h/mL
same,AUC(0-inf),"[1]; human, plasma, oral, 7.5 mg, geometric least squares mean, moderate hepatic impairment group, n 8, read-out: AUC0-∞ GLSM",1610 ng·h/mL
same,Cmax,"[1]; human, plasma, oral, 7.5 mg, geometric least squares mean, moderate hepatic impairment group, n 8, read-out: Cmax GLSM",75.3 ng/mL
same,AUC(0-t),"[1]; human, plasma, oral, 7.5 mg, geometric least squares mean, normal liver function group, n 8, read-out: AUC0-t GLSM",874 ng·h/mL
same,AUC(0-inf),"[1]; human, plasma, oral, 7.5 mg, geometric least squares mean, normal liver function group, n 8, read-out: AUC0-∞ GLSM",929 ng·h/mL
same,Cmax,"[1]; human, plasma, oral, 7.5 mg, geometric least squares mean, normal liver function group, n 8, read-out: Cmax GLSM",36.8 ng/mL
same,half-life,"[1]; human, plasma, po, 7.5 mg, single 7.5 mg oral dose, empty stomach, mild hepatic impairments (Child-Pugh: grade A), read-out: arithmetic mean of t1/2 (converted)",32.3 h
same,AUC(0-t),"[1]; human, plasma, po, 7.5 mg, single 7.5 mg oral dose, empty stomach, mild hepatic impairments (Child-Pugh: grade A), read-out: geometric mean of AUC0-t",1060 ng·h/mL
same,AUC(0-inf),"[1]; human, plasma, po, 7.5 mg, single 7.5 mg oral dose, empty stomach, mild hepatic impairments (Child-Pugh: grade A), read-out: geometric mean of AUC0-∞",1120 ng·h/mL
same,Tmax,"[1]; human, plasma, po, 7.5 mg, single 7.5 mg oral dose, empty stomach, mild hepatic impairments (Child-Pugh: grade A), read-out: median of Tmax",2 h
same,half-life,"[1]; human, plasma, po, 7.5 mg, single 7.5 mg oral dose, empty stomach, moderate hepatic impairments (Child-Pugh: grade B), read-out: arithmetic mean of t1/2 (converted)",36.3 h
same,AUC(0-t),"[1]; human, plasma, po, 7.5 mg, single 7.5 mg oral dose, empty stomach, moderate hepatic impairments (Child-Pugh: grade B), read-out: geometric mean of AUC0-t",1580 ng·h/mL
same,AUC(0-inf),"[1]; human, plasma, po, 7.5 mg, single 7.5 mg oral dose, empty stomach, moderate hepatic impairments (Child-Pugh: grade B), read-out: geometric mean of AUC0-∞",1660 ng·h/mL
same,Tmax,"[1]; human, plasma, po, 7.5 mg, single 7.5 mg oral dose, empty stomach, moderate hepatic impairments (Child-Pugh: grade B), read-out: median of Tmax",2 h
same,half-life,"[1]; human, plasma, po, 7.5 mg, single 7.5 mg oral dose, empty stomach, normal liver function, read-out: arithmetic mean of t1/2 (converted)",34.6 h
same,AUC(0-t),"[1]; human, plasma, po, 7.5 mg, single 7.5 mg oral dose, empty stomach, normal liver function, read-out: geometric mean of AUC0-t",874 ng·h/mL
same,AUC(0-inf),"[1]; human, plasma, po, 7.5 mg, single 7.5 mg oral dose, empty stomach, normal liver function, read-out: geometric mean of AUC0-∞",929 ng·h/mL
same,Tmax,"[1]; human, plasma, po, 7.5 mg, single 7.5 mg oral dose, empty stomach, normal liver function, read-out: median of Tmax",8 h
same,AUC(0-t),"[1]; human, plasma, po, 7.5 mg, single 7.5 mg oral dose, fasted, mild hepatic impairment (n = 8), GeoMean (% CVb), read-out: AUC0-t",1060 ng·h/mL
same,AUC(0-inf),"[1]; human, plasma, po, 7.5 mg, single 7.5 mg oral dose, fasted, mild hepatic impairment (n = 8), GeoMean (% CVb), read-out: AUC0-∞",1120 ng·h/mL
same,Cmax,"[1]; human, plasma, po, 7.5 mg, single 7.5 mg oral dose, fasted, mild hepatic impairment (n = 8), GeoMean (% CVb), read-out: Cmax",62.4 ng/mL
same,half-life,"[1]; human, plasma, po, 7.5 mg, single 7.5 mg oral dose, fasted, mild hepatic impairment (n = 8), Mean ± SD, read-out: t1/2 (converted)",32.2 ± 7.28 h
same,Tmax,"[1]; human, plasma, po, 7.5 mg, single 7.5 mg oral dose, fasted, mild hepatic impairment (n = 8), Median (Min-Max), read-out: Tmax",2 h
same,AUC(0-t),"[1]; human, plasma, po, 7.5 mg, single 7.5 mg oral dose, fasted, moderate hepatic impairment (n = 8), GeoMean (% CVb), read-out: AUC0-t",1580 ng·h/mL
same,AUC(0-inf),"[1]; human, plasma, po, 7.5 mg, single 7.5 mg oral dose, fasted, moderate hepatic impairment (n = 8), GeoMean (% CVb), read-out: AUC0-∞",1660 ng·h/mL
same,Cmax,"[1]; human, plasma, po, 7.5 mg, single 7.5 mg oral dose, fasted, moderate hepatic impairment (n = 8), GeoMean (% CVb), read-out: Cmax",82.8 ng/mL
same,half-life,"[1]; human, plasma, po, 7.5 mg, single 7.5 mg oral dose, fasted, moderate hepatic impairment (n = 8), Mean ± SD, read-out: t1/2 (converted)",36.3 ± 11.9 h
same,Tmax,"[1]; human, plasma, po, 7.5 mg, single 7.5 mg oral dose, fasted, moderate hepatic impairment (n = 8), Median (Min-Max), read-out: Tmax",2 h
same,AUC(0-t),"[1]; human, plasma, po, 7.5 mg, single 7.5 mg oral dose, fasted, normal liver function group (n = 8), GeoMean (% CVb), read-out: AUC0-t",874 ng·h/mL
same,AUC(0-inf),"[1]; human, plasma, po, 7.5 mg, single 7.5 mg oral dose, fasted, normal liver function group (n = 8), GeoMean (% CVb), read-out: AUC0-∞",929 ng·h/mL
same,Cmax,"[1]; human, plasma, po, 7.5 mg, single 7.5 mg oral dose, fasted, normal liver function group (n = 8), GeoMean (% CVb), read-out: Cmax",36.8 ng/mL
same,half-life,"[1]; human, plasma, po, 7.5 mg, single 7.5 mg oral dose, fasted, normal liver function group (n = 8), Mean ± SD, read-out: t1/2 (converted)",34.6 ± 11.9 h
same,Tmax,"[1]; human, plasma, po, 7.5 mg, single 7.5 mg oral dose, fasted, normal liver function group (n = 8), Median (Min-Max), read-out: Tmax",8 h
same,AUC0-t increase,[1]; [4],21.73%
same,AUC0-∞ increase,[1]; [4],20.16%
same,Cmax increase,[1]; [4],70.39%
same,AUC0-t increase,[1]; [5],71.21%
same,AUC0-∞ increase,[1]; [5],73.06%
same,Cmax increase,[1]; [5],104.72%
same,half-lives compared between groups,"[1]; normal, mild and moderate hepatic impairment groups",substantially identical half-lives
same,CL/F,[1]; [6],6.72(41.5) L/h
same,Cmax,[1]; [6],62.6(42.2) ng/mL
same,V/F,[1]; [6],304(45.6) L
same,CL/F,[1]; [7],4.66(58.8) L/h
same,V/F,[1]; [7],233(69.7) L
same,CL/F,[1]; [8],8.07(101.6) L/h
same,V/F,[1]; [8],372(60.3) L
same,effect of hepatic impairments on plasma protein binding rate,plasma protein,did not significantly affect
same,platelet counts after administration compared to the baseline,platelet counts,trend towards higher platelet counts compared to the baseline
same,incidence of AEs related to the study drug,"[2]; all 24 subjects, 13 subjects, 25 events",54.2%
same,incidence of adverse events,"[2]; all 24 subjects, 15 subjects, 29 events",62.5%
same,subjects with grade 1 drug-related AEs (CTCAE5.0),"[2]; all subjects, nine subjects",37.5%
same,subjects with grade 2 drug-related AEs (CTCAE5.0),"[2]; all subjects, seven subjects",29.2%
same,subjects with grade 2 drug-related AEs (CTCAE5.0),"[2]; mild hepatic impairment group, 1 subject, decreased neutrophil count",12.5%
same,subjects with grade 1 drug-related AEs (CTCAE5.0),"[2]; mild hepatic impairment group, 3 subjects",37.5%
same,incidence of AEs related to the study drug,"[2]; mild hepatic impairment group, 4 subjects, 5 events",50.0%
same,subjects with grade 3 drug-related AEs (CTCAE5.0),"[2]; moderate hepatic impairment group, 1 subject",12.5%
same,subjects with grade 1 drug-related AEs (CTCAE5.0),[2]; [9],62.5%
same,subjects with grade 2 drug-related AEs (CTCAE5.0),[2]; [9],62.5%
same,incidence of AEs related to the study drug,"[2]; moderate hepatic impairment group, 7 subjects, 18 events",87.5%
same,subjects with grade 1 drug-related AEs (CTCAE5.0),"[2]; normal liver function group, 1 subject",25.0%
same,subjects with grade 2 drug-related AEs (CTCAE5.0),"[2]; normal liver function group, 1 subject, hypertriglyceridemia",12.5%
same,incidence of AEs related to the study drug,"[2]; normal liver function group, 2 subjects, 2 events",25.0%
same,safety and tolerability,"[2]; single oral dose, normal liver function, mild and moderate hepatic impairments",safe and well tolerated
